Measurements: the NIST ThermoML archive (doi:10.1021/je900511c)

Details: Liquid, Closed cell (Static) method

CCO[Si](C)(Cl)Cl [dichloroethoxymethylsilane]
Details	vapor or sublimation pressure [kPa]
312.94 K	11.32
318.43 K	14.32
323.01 K	17.32
326.93 K	20.32
330.24 K	23.32
333.29 K	26.32
336.2 K	29.32
338.84 K	32.33
341.28 K	35.33
343.57 K	38.33
345.66 K	41.33
347.54 K	44.33
349.48 K	47.33
351.36 K	50.33
353.04 K	53.33
354.72 K	56.33
356.25 K	59.33
357.82 K	62.33
359.25 K	65.33
360.57 K	68.33
361.95 K	71.33
363.22 K	74.33
364.59 K	77.33
365.87 K	80.33
366.98 K	83.33
368.21 K	86.33
369.38 K	89.33
370.5 K	92.33
371.51 K	95.33
372.58 K	98.33
373.6 K	101.27
